We go through 17 compounds from PubChem BioAssay AID292 (DTP/NCI, 2004).

“And” between values parts separate entries of the source, which are not always exact repeats. Equal values may be shown once. Toxic doses and inconclusive results are not listed.

The assay concerns B6C3F1 mice, ip Sarcoma M5076, median survival T/C. The assay is described as follows: NCI In Vivo Anticancer Drug Screen. Data for tumor model Sarcoma M5076 (intraperitoneal) in B6C3F1 mice. Conditions: endpoint: median survival time, schedule: Q04DX004 (ip), higher = longer survival. The gist of the method:
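Tumour cells were transplanted into mice, compound or vehicle was given, survival of both groups was followed, and the treated figure was expressed over the control figure.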

Setting [1] is: dose: 25.0 mg/kg/injection, vehicle: DMSO.
The mark [2] stands for this setting: dose: 50.0 mg/kg/injection, vehicle: DMSO.
Setting [3] is: dose: 25.0 mg/kg/injection, vehicle: saline with Tween-80.
Setting [4] is: dose: 50.0 mg/kg/injection, vehicle: saline with Tween-80.
Setting [5] is: dose: 100.0 mg/kg/injection, vehicle: saline with Tween-80.
Setting [6] is: dose: 25.0 mg/kg/injection, vehicle: suspension in saline.
[7] abbreviates: dose: 200.0 mg/kg/injection, vehicle: Klucel (hydroxypropylcellulose) (HPC).
Where [8] appears, read: dose: 400.0 mg/kg/injection, vehicle: Klucel (hydroxypropylcellulose) (HPC).
[9] abbreviates: dose: 50.0 mg/kg/injection, vehicle: Klucel (hydroxypropylcellulose) (HPC).
Setting [10] is: dose: 100.0 mg/kg/injection, vehicle: Klucel (hydroxypropylcellulose) (HPC).
[11] abbreviates: dose: 800.0 mg/kg/injection, vehicle: Klucel (hydroxypropylcellulose) (HPC).

`CCOC(=O)Nc1cc2c(c(N)n1)N=C(c1ccc3ccccc3c1)CN2`: the T/C is, setting by setting: (dose: 3.75 mg/kg/injection, vehicle: saline with Tween-80) 110 % of control; (dose: 7.5 mg/kg/injection, vehicle: saline with Tween-80) 108 % of control; (dose: 15.0 mg/kg/injection, vehicle: saline with Tween-80) 120 % of control; (dose: 30.0 mg/kg/injection, vehicle: saline with Tween-80) 111 % of control.

For the compound `COc1ccc(CCN2C(=O)C(=O)N(c3cccc4c(N5C(=O)C(=O)N(CCc6ccc(OC)c(OC)c6)C5=O)cccc34)C2=O)cc1OC`, the T/C was 94 % of control (dose: 18.75 mg/kg/injection, vehicle: Klucel (hydroxypropylcellulose) (HPC)); 99 % of control (dose: 37.5 mg/kg/injection, vehicle: Klucel (hydroxypropylcellulose) (HPC)); 99 % of control (dose: 75.0 mg/kg/injection, vehicle: Klucel (hydroxypropylcellulose) (HPC)); 105 % of control (dose: 150.0 mg/kg/injection, vehicle: Klucel (hydroxypropylcellulose) (HPC)).

In the case of `OCC(O)C(O)C(O)C(O)CO` (centres undefined), the T/C (dose: 75.0 mg/kg/injection, vehicle: saline) is 96 % of control and 102 % of control; the T/C (dose: 150.0 mg/kg/injection, vehicle: saline) is 111 % of control; the T/C (dose: 300.0 mg/kg/injection, vehicle: saline) was 96 % of control and 100 % of control; the T/C (dose: 600.0 mg/kg/injection, vehicle: saline) was 92 % of control and 101 % of control; the T/C (dose: 1200.0 mg/kg/injection, vehicle: saline) was 101 % of control and 106 % of control.

For the compound `COc1cc2c(oc(=O)c3cc(C)cc(OC)c32)c2c(C3OC(C)C(O)C(C)(O)C3O)ccc(O)c12` (centres undefined), the T/C reads like this: (dose: 3.12 mg/kg/injection, vehicle: DMSO) 106 % of control and 107 % of control; (dose: 6.25 mg/kg/injection, vehicle: DMSO) 101 % of control and 109 % of control; (dose: 12.5 mg/kg/injection, vehicle: DMSO) 101 % of control and 107 % of control; under setting [1], 109 % of control and 112 % of control; under setting [2], 103 % of control and 109 % of control.

With `CC(=O)C[n+]1ccccc1Sc1ccc(Cl)cc1`, the T/C is, setting by setting: under setting [3], 98 % of control; under setting [4], 86 % of control; under setting [5], 88 % of control.

In the case of `Cc1cccc(OCC(O)CN2CC2)c1` (centres undefined), the T/C is 101 % of control and 104 % of control under setting [3]; 97 % of control (dose: 36.0 mg/kg/injection, vehicle: saline with Tween-80); 105 % of control and 114 % of control under setting [4]; 102 % of control (dose: 60.0 mg/kg/injection, vehicle: saline with Tween-80); 119 % of control (dose: 166.66 mg/kg/injection, vehicle: saline with Tween-80); 108 % of control (dose: 200.0 mg/kg/injection, vehicle: saline with Tween-80). Further, the T/C (dose: 277.77 mg/kg/injection, vehicle: saline with Tween-80) was 116 % of control.

As to `CCCCCCCC(=O)[O][Hg][CH2]C1COC([CH2][Hg][O]C(=O)CCCCCCC)CO1` (centres undefined), the T/C reads like this: (dose: 6.25 mg/kg/injection, vehicle: saline with Tween-80) 95 % of control; (dose: 12.5 mg/kg/injection, vehicle: saline with Tween-80) 86 % of control; under setting [3], 86 % of control and 87 % of control; under setting [4], 87 % of control and 90 % of control; under setting [5], 87 % of control.

Take `CCCCNc1ccc2nnc(C)n2n1`: the T/C under setting [1] is 99 % of control; the T/C under setting [2] is 92 % of control and 100 % of control; the T/C (dose: 100.0 mg/kg/injection, vehicle: DMSO) is 94 % of control and 96 % of control; the T/C (dose: 200.0 mg/kg/injection, vehicle: DMSO) is 92 % of control and 101 % of control.

Regarding `O=C(O)Cc1cccc2c(=O)cc(-c3ccccc3)oc12`, the T/C is 98 % of control (dose: 6.25 mg/kg/injection, vehicle: suspension in saline); 95 % of control (dose: 12.5 mg/kg/injection, vehicle: suspension in saline); 102 % of control under setting [6]; 100 % of control (dose: 50.0 mg/kg/injection, vehicle: suspension in saline); 102 % of control (dose: 100.0 mg/kg/injection, vehicle: suspension in saline).

For `CCC1(O)C(=O)OCc2c1cc1n(c2=O)Cc2cc3cc(N)ccc3nc2-1` (centres undefined), the T/C (dose: 7.5 mg/kg/injection, vehicle: suspension in saline) is 160 % of control; the T/C (dose: 9.0 mg/kg/injection, vehicle: suspension in saline) was 174 % of control; the T/C (dose: 15.0 mg/kg/injection, vehicle: suspension in saline) was 170 % of control and 231 % of control; the T/C under setting [6] was 150 % of control; the T/C (dose: 42.0 mg/kg/injection, vehicle: suspension in saline) is 90 % of control.

With `COc1c(C=O)c2c(c(OC)c1OC)-c1ccc(OC)c(=O)cc1[C@@H](NC(C)=O)CC2`, the T/C (dose: 3.75 mg/kg/injection, vehicle: Klucel (hydroxypropylcellulose) (HPC)) is 118 % of control and the T/C (dose: 7.5 mg/kg/injection, vehicle: Klucel (hydroxypropylcellulose) (HPC)) was 118 % of control.

As for `O=C1CC2(C(=O)N1CN1CCOCC1)c1ccccc1-c1ccccc12`, the T/C is 113 % of control under setting [7] and 121 % of control under setting [8].

Take `CC(CNC(=O)C12CC3CC(CC(C3)C1)C2)NC(=O)C12CC3CC(CC(C3)C1)C2` (centres undefined): the T/C is 94 % of control (dose: 25.0 mg/kg/injection, vehicle: other); 98 % of control (dose: 50.0 mg/kg/injection, vehicle: other); 90 % of control (dose: 100.0 mg/kg/injection, vehicle: other); 98 % of control (dose: 200.0 mg/kg/injection, vehicle: other).

For `CCCC1(c2ccccc2)C(=O)NCNC1=O`, the T/C runs as follows: under setting [9], 99 % of control; under setting [10], 95 % of control; under setting [7], 88 % of control; under setting [8], 88 % of control; under setting [11], 88 % of control.

For `Cc1nc(N)nc(N)c1N1CCN(c2ccc(C(=O)NC(C(=O)O)C(=O)O)cc2)CC1`, the T/C (dose: 3.75 mg/kg/injection, vehicle: Klucel + Tween-80) was 104 % of control; the T/C (dose: 7.5 mg/kg/injection, vehicle: Klucel + Tween-80) was 106 % of control; the T/C (dose: 15.0 mg/kg/injection, vehicle: Klucel + Tween-80) was 103 % of control; the T/C (dose: 30.0 mg/kg/injection, vehicle: Klucel + Tween-80) was 113 % of control; the T/C (dose: 60.0 mg/kg/injection, vehicle: Klucel + Tween-80) is 121 % of control.

`CC1(C)Nc2cc3c(cc2-n2cccc21)oc1ccccc13`: the T/C by setting is: (dose: 150.0 mg/kg/injection, vehicle: DMSO) 101 % of control; (dose: 300.0 mg/kg/injection, vehicle: DMSO) 100 % of control; (dose: 600.0 mg/kg/injection, vehicle: DMSO) 101 % of control; (dose: 1200.0 mg/kg/injection, vehicle: DMSO) 97 % of control.

As for `CCOC(=O)c1c[nH]c2ccc3c(nc(C)n3C)c2c1=O`, the T/C is, setting by setting: under setting [9], 101 % of control; under setting [10], 104 % of control; under setting [7], 101 % of control; under setting [8], 98 % of control; under setting [11], 103 % of control.
